Experimental data reported in patent publication US20070281992A1, “COMBINATION OF GYRASE B INHIBITORS AND PROTEIN SYNTHESIS INHIBITORS AND USES THEREOF” (priority 2006, published 2007).
Like-named read-outs stand apart in the source and are kept apart here.

What was measured:
Format in all cases: cell-based
[1] = system: Methicillin-Resistant Staphylococcus aureus Isolates; assay: MIC assay (NCCLS broth dilution), MRSA clinical isolates; conditions: Staphylococcus aureus; for MIC: read-out: Minimal Inhibitory Concentration
Method: (§1) Antibiotics: novobiocin, tetracycline, minocycline, oxacillin, and vancomycin were all purchased from Sigma-Aldrich. Linezolid was obtained from Pfizer, Inc. Novobiocin/tetracycline and novobiocin/minocycline were tested in a 2.5:1 ratio to mimic the serum levels. (Vavra, J. J., 1967, Development of resistance to novobiocin, tetracycline, and novobiocin-tetracycline combinations in Staphylococcus aureus populations, J. Bacteriol 93(3):801). Compounds were tested across a concentration range consisting of 11 two-fold serial dilutions of test agent.
(§2) Stock solutions were prepared in sterile deionized water; novobiocin stock concentration was 1600 μg/mL and all other drugs stock solutions were prepared at 640 μg/mL. The stock solutions were allowed to sit at room temperature for one hour to auto-sterilize prior to use in the test. All compounds were in solution in water. The control agent was vancomycin hydrochloride, Sigma Chemical Lot # 015K0825.
(§3) The test organisms for the assay were 52 MSSA, 52 MRSA, 8 VISA, 7 VISE, and 3 LRSA isolates. Quality control strains included Staphylococcus aureus 0100 (ATCC 29213) and Enterococcus faecalis (ATCC 29212).
(§4) The MIC assay was performed according to published NCCLS guidelines. (National Committee for Clinical Laboratory Standards, Methods for Dilution Antimicrobial Susceptibility Tests for Bacteria that Grow Aerobically; Approved Standard-Sixth Edition, NCCLS Document M7-A6 [ISBN 1-56238-486-4], NCCLS, 940 West Valley Road, Suite 1400, Wayne, Pa. 19087-1898 USA, 2003). The test medium was Mueller Hinton II Broth for all organisms.

[2] = system: Vancomycin-intermediate Staphylococcus epidermidis Isolates; assay: MIC assay (NCCLS broth dilution), VISE isolates; conditions: for MIC: read-out: Minimal Inhibitory Concentration
Method: as §1, §2, §3, §4

[3] = system: Unconfirmed Vancomycin-intermediate Staphylococcus epidermidis Isolates; assay: MIC assay (NCCLS broth dilution), unconfirmed VISE isolates; conditions: for MIC: read-out: Minimal Inhibitory Concentration
Method: as §1, §2, §3, §4

[4] = system: Linezolid-Resistant Staphylococcus aureus Isolates; assay: MIC assay (NCCLS broth dilution), LRSA isolates; conditions: Staphylococcus aureus; for MIC: read-out: Minimal Inhibitory Concentration
Method: as §1, §2, §3, §4

[5] = 52 MRSA isolates, combinations at 2.5:1, given as NB/partner

CC(=O)NC[C@H]1CN(c2ccc(N3CCOCC3)c(F)c2)C(=O)O1 [LZD, linezolid]
MIC ([1]; MRSA isolate 765, 22FEB06): 4 µg/mL
MIC ([1]; MRSA isolate 766, 22FEB06): 4 µg/mL
MIC ([1]; MRSA isolate 767, 22FEB06): 2 µg/mL
MIC ([1]; MRSA isolate 768, 22FEB06): 2 µg/mL
MIC ([1]; MRSA isolate 769, 22FEB06): 2 µg/mL
MIC ([1]; MRSA isolate 770, 22FEB06): 2 µg/mL
MIC ([1]; MRSA isolate 771, 22FEB06): 2 µg/mL
MIC ([1]; MRSA isolate 772, 22FEB06): 2 µg/mL
MIC ([1]; MRSA isolate 773, 24FEB06): 2 µg/mL
MIC ([1]; MRSA isolate 774, 24FEB06): 2 µg/mL
MIC ([1]; MRSA isolate 775, 24FEB06): 4 µg/mL
MIC ([1]; MRSA isolate 776, 24FEB06): 2 µg/mL
MIC ([1]; MRSA isolate 777, 24FEB06): 2 µg/mL
MIC ([1]; MRSA isolate 778, 24FEB06): 2 µg/mL
MIC ([1]; MRSA isolate 886, 24FEB06): 2 µg/mL
MIC ([1]; MRSA isolate 887, 24FEB06): 4 µg/mL
MIC ([1]; MRSA isolate 888, 24FEB06): 4 µg/mL
MIC ([1]; MRSA isolate 889, 24FEB06): 4 µg/mL
MIC ([1]; MRSA isolate 1004, 24FEB06): 4 µg/mL
MIC ([1]; MRSA isolate 1010, 22FEB06): 2 µg/mL
MIC ([1]; MRSA isolate 1012, 22FEB06): 2 µg/mL
MIC ([1]; MRSA isolate 1013, 22FEB06): 2 µg/mL
MIC ([1]; MRSA isolate 1014, 22FEB06): 2 µg/mL
MIC ([1]; MRSA isolate 1015, 22FEB06): 2 µg/mL
MIC ([1]; MRSA isolate 1016, 22FEB06): 2 µg/mL
MIC ([1]; MRSA isolate 1017, 22FEB06): 2 µg/mL
MIC ([1]; MRSA isolate 1021, 22FEB06): 2 µg/mL
MIC ([1]; MRSA isolate 1022, 22FEB06): 2 µg/mL
MIC ([1]; MRSA isolate 1023, 22FEB06): 2 µg/mL
MIC ([1]; MRSA isolate 1024, 22FEB06): 2 µg/mL
MIC ([1]; MRSA isolate 1025, 22FEB06): 2 µg/mL
MIC ([1]; MRSA isolate 1135, 22FEB06): 2 µg/mL
MIC ([1]; MRSA isolate 1136, 22FEB06): 4 µg/mL
MIC ([1]; MRSA isolate 1137, 22FEB06): 2 µg/mL
MIC ([1]; MRSA isolate 1138, 22FEB06): 4 µg/mL
MIC ([1]; MRSA isolate 1222, 03MAR06): 2 µg/mL
MIC ([1]; MRSA isolate 1222, 24FEB06): 2 µg/mL
MIC ([1]; MRSA isolate 1653, 03MAR06): 2 µg/mL
MIC ([1]; MRSA isolate 1658, 03MAR06): 2 µg/mL
MIC ([1]; MRSA isolate 1659, 03MAR06): 2 µg/mL
MIC ([1]; MRSA isolate 1661, 03MAR06): 4 µg/mL
MIC ([1]; MRSA isolate 1729, 03MAR06): 2 µg/mL
MIC ([1]; MRSA isolate 1730, 24FEB06): 4 µg/mL
MIC ([1]; MRSA isolate 2009, 24FEB06): 2 µg/mL
MIC ([1]; MRSA isolate 2010, 24FEB06): 2 µg/mL
MIC ([1]; MRSA isolate 2011, 24FEB06): 4 µg/mL
MIC50 [1, 5]: 2 µg/mL
MIC90 [1, 5]: 4 µg/mL
MIC Range ([2]; 4 VISE isolates, combinations at 2.5:1): 1 to 2 µg/mL
MIC ([2]; Staphylococcus epidermidis, VISE isolate 2020, 09MAR06): 2 µg/mL
MIC ([2]; Staphylococcus epidermidis, VISE isolate 2021, 09MAR06): 1 µg/mL
MIC ([2]; Staphylococcus epidermidis, VISE isolate 2022, 03MAR06): 2 µg/mL
MIC ([2]; Staphylococcus epidermidis, VISE isolate 2023, 03MAR06): 2 µg/mL
MIC50 ([2]; Staphylococcus epidermidis, 4 VISE isolates, combinations at 2.5:1): 2 µg/mL
MIC Range ([3]; 3 unconfirmed VISE isolates, combinations at 2.5:1): 1 to 2 µg/mL
MIC ([3]; Staphylococcus epidermidis, Unconfirmed VISE isolate 2024, 09MAR06): 1 µg/mL
MIC ([3]; Staphylococcus epidermidis, Unconfirmed VISE isolate 2025, 09MAR06): 1 µg/mL
MIC ([3]; Staphylococcus epidermidis, Unconfirmed VISE isolate 2026, 03MAR06): 2 µg/mL
MIC50 ([3]; Staphylococcus epidermidis, 3 unconfirmed VISE isolates, combinations at 2.5:1): 1 µg/mL
MIC ([4]; LRSA isolate 1651, 24FEB06): 16 µg/mL
MIC ([4]; LRSA isolate 1652, 24FEB06): 32 µg/mL
MIC ([4]; LRSA isolate 1725, 24FEB06): 32 µg/mL
MIC50 ([4]; 3 LRSA isolates, combinations at 2.5:1): 32 µg/mL
